Results reported in PubChem BioAssay (NCI).
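Protocol summary: plate cells (96-well), add compound at 5 concentrations, incubate 48 h, interpolate endpoints linearly. TGI denotes the concentration required for complete inhibition of growth.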

System: KM20L2 colon
Test: growth of human tumour cells (NCI), 48 h

Compound | TGI [µM]
CCOC(=O)CC1=N/C(=N/C(=N)N[N+](=O)[O-])SC1 | > 100
CC(=O)OCC1OC(N2C(=O)[C@@H](Oc3ccccc3)[C@H]2/C=C/c2ccccc2)C(OC(C)=O)C(OC(C)=O)C1OC(C)=O (stereo not given in full) | > 100
O=C(O)CN1CCSc2ccccc2CN(CC(=O)O)CCSc2ccccc2C1 | > 100
COc1cccc2c1C(=O)c1c(O)c3c(c(O)c1C2=O)C[C@@](O)(C(=O)CO)CC3OC1CC(N(C)CCOCC(OC(C)=O)OC(C)=O)C(O)C(C)O1 (stereo not given in full) | > 0.01
CCN(CC)C(=O)CCn1ccc(=O)[nH]c1=O | > 100
